The values below come from patent US11655217B2, “Pyrazole MAGL inhibitors” (H. Lundbeck A/S, priority 2017, dated 2023).

Each structure is given as a SMILES string.

For one test, the target named is MAGL (Mus musculus (Mouse), UniProt O35678). The test can be described thus: Mouse brain proteomes from inhibitor treated mice (oral gavage, sacrificed 4 h after administration, ABPP analysis). To be noted: 5 mg/kg oral gavage.
The target of another test is FAAH (Mus musculus (Mouse), UniProt O08914). Briefly: Mouse brain proteomes from inhibitor treated mice (oral gavage, sacrificed 4 h after administration, ABPP analysis), FAAH. To be noted: 5 mg/kg oral gavage.
Sequence of FAAH (O08914 whole entry): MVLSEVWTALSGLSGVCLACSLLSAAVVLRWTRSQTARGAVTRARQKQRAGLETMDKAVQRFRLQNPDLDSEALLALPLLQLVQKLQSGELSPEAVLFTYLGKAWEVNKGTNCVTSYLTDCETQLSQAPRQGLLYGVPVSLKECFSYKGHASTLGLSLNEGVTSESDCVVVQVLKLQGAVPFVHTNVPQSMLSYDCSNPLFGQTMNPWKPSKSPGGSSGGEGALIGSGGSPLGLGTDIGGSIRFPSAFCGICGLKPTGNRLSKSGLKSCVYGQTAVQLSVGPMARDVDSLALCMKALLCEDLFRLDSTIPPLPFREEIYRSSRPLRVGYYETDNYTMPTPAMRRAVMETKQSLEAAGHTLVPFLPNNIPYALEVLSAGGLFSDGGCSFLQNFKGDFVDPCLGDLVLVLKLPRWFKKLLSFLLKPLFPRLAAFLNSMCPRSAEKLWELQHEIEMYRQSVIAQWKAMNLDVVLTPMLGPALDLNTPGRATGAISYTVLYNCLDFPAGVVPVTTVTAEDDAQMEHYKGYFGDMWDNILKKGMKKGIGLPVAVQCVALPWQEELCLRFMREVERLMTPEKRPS

Sequence of MAGL (O35678 whole entry): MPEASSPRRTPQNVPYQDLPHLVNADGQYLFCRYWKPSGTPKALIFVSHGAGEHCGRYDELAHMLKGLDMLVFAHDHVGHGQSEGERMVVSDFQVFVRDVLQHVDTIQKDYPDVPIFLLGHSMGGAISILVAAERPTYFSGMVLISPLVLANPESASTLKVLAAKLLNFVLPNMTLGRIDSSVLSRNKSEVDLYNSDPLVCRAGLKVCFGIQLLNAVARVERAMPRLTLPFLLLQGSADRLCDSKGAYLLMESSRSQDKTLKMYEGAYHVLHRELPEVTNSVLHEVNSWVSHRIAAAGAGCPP
Experimental for FAAH: (§1) Preparation of Mouse Brain Proteomes from Inhibitor Treated Mice.
(§2) Inhibitors were administered to wild-type C57Bl/6J by oral gavage in a vehicle of polyethylene glycol.
Experimental for MAGL: as §1, §2

With `O=C(O)c1ccn(C(=O)N2CCC3(CCCN3Cc3cc4ccc(C(F)(F)F)cc4s3)CC2)n1` [Example 185, 1-(1-((6-(trifluoromethyl)-benzo[b]thiophen-2-yl)methyl)-1,8-diazaspiro[4.5]-decane-8-carbonyl)-1H-pyrazole-3-carboxylic acid], at MAGL, the “MAGL % inh. 5 mg/kg (mouse)” value is “D (% inhibition is greater than or equal to 0% and less than 25%)”. Also, the “FAAH % inh. 5 mg/kg (mouse)” value on FAAH was “D (% inhibition is greater than or equal to 0% and less than 25%)”.

Consider `O=C(O)c1ccn(C(=O)N2CCN(Cc3cccc(C(F)(F)F)c3N3CCCC3)CC2)n1` [Example 90, 1-(4-(2-(pyrrolidin-1-yl)-3-(trifluoromethyl)benzyl)piperazine-1-carbonyl)-1H-pyrazole-3-carboxylic acid], for which, on MAGL, the “MAGL % inh. 5 mg/kg (mouse)” value was “D (% inhibition is greater than or equal to 0% and less than 25%)”. Besides, at FAAH, the “FAAH % inh. 5 mg/kg (mouse)” value is “D (% inhibition is greater than or equal to 0% and less than 25%)”.

With `O=C(O)c1nn(C(=O)N2CCC3(CCCN3Cc3cc4ccc(C(F)(F)F)cc4s3)CC2)cc1Cl` [Example 139, 4-chloro-1-(1-((6-(trifluoromethyl)benzo[b]thiophen-2-yl)methyl)-1,8-diazaspiro[4.5]decane-8-carbonyl)-1H-pyrazole-3-carboxylic acid], the “MAGL % inh. 5 mg/kg (mouse)” value on MAGL was “D (% inhibition is greater than or equal to 0% and less than 25%)”. Also, at FAAH, the “FAAH % inh. 5 mg/kg (mouse)” value is “D (% inhibition is greater than or equal to 0% and less than 25%)”.

With `O=C(O)c1nn(C(=O)N2CCN(Cc3cccc(Oc4ccc(Cl)cc4)c3)CC2)cc1Cl` [Example 132, 4-chloro-1-(4-(3-(4-chlorophenoxy)benzyl)piperazine-1-carbonyl)-1H-pyrazole-3-carboxylic acid], the “MAGL % inh. 5 mg/kg (mouse)” value at MAGL was “D (% inhibition is greater than or equal to 0% and less than 25%)”. The “FAAH % inh. 5 mg/kg (mouse)” value on FAAH was “D (% inhibition is greater than or equal to 0% and less than 25%)”.

On to `Cc1cn(C(=O)N2CCC3(CCN(Cc4cc(Cl)ccc4C(F)(F)F)C3)CC2)nc1C(=O)O` [Example 130, 1-(2-(5-chloro-2-(trifluoromethyl)benzyl)-2,8-diazaspiro[4.5]decane-8-carbonyl)-4-methyl-1H-pyrazole-3-carboxylic acid], for which the “MAGL % inh. 5 mg/kg (mouse)” value at MAGL is “D (% inhibition is greater than or equal to 0% and less than 25%)”. Besides, on FAAH, the “FAAH % inh. 5 mg/kg (mouse)” value is “D (% inhibition is greater than or equal to 0% and less than 25%)”.

Consider `O=C(O)c1ccn(C(=O)N2CC3CN(Cc4cccc(Oc5ccc(Cl)cc5)c4)CC3C2)n1` (stereo not drawn) [Example 116, 1-(5-(3-(4-chlorophenoxy)benzyl)octahydro-pyrrolo[3,4-c]pyrrole-2-carbonyl)-1H-pyrazole-3-carboxylic acid], for which the “MAGL % inh. 5 mg/kg (mouse)” value at MAGL is “D (% inhibition is greater than or equal to 0% and less than 25%)”. Moreover, at FAAH, the “FAAH % inh. 5 mg/kg (mouse)” value is “D (% inhibition is greater than or equal to 0% and less than 25%)”.

Consider `O=C(O)c1ccn(C(=O)N2CCN(Cc3ccc(Cl)cc3N3CCCC3)CC2)n1` [Example 107, 1-(4-(4-chloro-2-(pyrrolidin-1-yl)benzyl)piperazine-1-carbonyl)-1H-pyrazole-3-carboxylic acid], for which the “MAGL % inh. 5 mg/kg (mouse)” value on MAGL is “D (% inhibition is greater than or equal to 0% and less than 25%)”. In addition, at FAAH, the “FAAH % inh. 5 mg/kg (mouse)” value was “D (% inhibition is greater than or equal to 0% and less than 25%)”.

As for `C[C@@H]1C[C@H](N(C)Cc2cccc(C(F)(F)F)c2)CCN1C(=O)n1ccc(C(N)=O)n1` [Example 257, 1-((2R,4R)-2-methyl-4-(methyl(3-(trifluoromethyl)benzyl)amino)piperidine-1-carbonyl)-1H-pyrazole-3-carboxamide], the “MAGL % inh. 5 mg/kg (mouse)” value at MAGL is “A (% inhibition is greater than or equal to 75%)”.

Turning to `O=C(O)c1ccn(C(=O)N2C[C@H]3C[C@H](Oc4cccc(-c5cccnc5)c4)C[C@H]3C2)n1` [Example 241, 1-(trans-5-(3-(pyridin-3-yl)phenoxy)octa-hydrocyclopenta-[c]pyrrole-2-carbonyl)-1H-pyrazole-3-carboxylic acid], on MAGL, the “MAGL % inh. 5 mg/kg (mouse)” value was “D (% inhibition is greater than or equal to 0% and less than 25%)”.

For `Cc1cc(-c2ccccc2)ccc1CN1CCN(C(=O)n2ccc(C(=O)O)n2)[C@H](C)C1` [Example 245, (R)-1-(2-methyl-4-((3-methyl-[1,1′-biphenyl]-4-yl)methyl)piperazine-1-carbonyl)-1H-pyrazole-3-carboxylic acid], the “MAGL % inh. 5 mg/kg (mouse)” value on MAGL was “D (% inhibition is greater than or equal to 0% and less than 25%)”.

As for `CN(Cc1cccc(C(F)(F)F)c1N1CCCC1)C1(C)CCN(C(=O)n2ccc(C(=O)O)n2)CC1` [Example 382, 1-(4-methyl-4-(methyl(2-(pyrrolidin-1-yl)-3-(trifluoromethyl)benzyl)amino)piper-idine-1-carbonyl)-1H-pyrazole-3-carboxylic acid], on MAGL, the “MAGL % inh. 5 mg/kg (mouse)” value was “D (% inhibition is greater than or equal to 0% and less than 25%)”.

As to `C[C@H]1CN(Cc2cc(F)cc(Oc3ccc(Cl)cc3)c2)CCN1C(=O)n1ccc(C(=O)O)n1` [Example 347, (S)-1-(4-(3-(4-chlorophenoxy)-5-fluorobenzyl)-2-methylpiperazine-1-carbonyl)-1H-pyrazole-3-carboxylic acid], the “MAGL % inh. 5 mg/kg (mouse)” value on MAGL was “D (% inhibition is greater than or equal to 0% and less than 25%)”.

As to `O=C(O)c1ccn(C(=O)N2CCC(Oc3cc(N4CCCC4)cc(C(F)(F)F)c3)CC2)n1` [Example 308, 1-(4-(3-(pyrrolidin-1-yl)-5-(trifluoromethyl)phenoxy)piperidine-1-carbonyl)-1H-pyrazole-3-carboxylic acid], on MAGL, the “MAGL % inh. 5 mg/kg (mouse)” value is “D (% inhibition is greater than or equal to 0% and less than 25%)”.

As for `C[C@H]1CN(Cc2cccc(Oc3ccc(Cl)cc3)c2)CCN1C(=O)n1ccc(C(=O)O)n1` [Example 311, (S)-1-(4-(3-(4-chlorophenoxy)benzyl)-2-methylpiperazine-1-carbonyl)-1H-pyrazole-3-carboxylic acid], on MAGL, the “MAGL % inh. 5 mg/kg (mouse)” value is “D (% inhibition is greater than or equal to 0% and less than 25%)”.

For the compound `CN(Cc1ccc(C(F)(F)F)c(N2CCCC2)c1)C1(C)CCN(C(=O)n2ccc(C(=O)O)n2)CC1` [Example 385, 1-(4-methyl-4-(methyl(3-(pyrrolidin-1-yl)-4-(trifluoromethyl)benzyl)amino)piper-idine-1-carbonyl)-1H-pyrazole-3-carboxylic acid], the “MAGL % inh. 5 mg/kg (mouse)” value on MAGL is “D (% inhibition is greater than or equal to 0% and less than 25%)”.

As to `CC(C)c1cccc(O[C@H]2C[C@@H]3CN(C(=O)n4ccc(C(=O)O)n4)C[C@@H]3C2)c1` [Example 220, 1-(trans-5-(3-isopropylphenoxy)ocatahydrocyclo-penta[c]pyrrole-2-carbonyl)-1H-pyrazole-3-carboxylic acid], the “MAGL % inh. 5 mg/kg (mouse)” value on MAGL is “C (% inhibition is greater than or equal to 25% and less than 50%)”.

Turning to `NC(=O)c1ccn(C(=O)N2CC3CN(Cc4ccc(C5(C(=O)O)CCOCC5)cc4C(F)(F)F)CC3C2)n1` (stereo not drawn) [Example 35, 4-(4-((5-(3-carbamoyl-1H-pyrazole-1-carbonyl)hexahydropyrrolo[3,4-c]pyrrol-2(1H)-yl)methyl)-3-(trifluoromethyl)phenyl)tetrahydro-2H-pyran-4-carboxylic acid], the “MAGL % inh. 5 mg/kg (mouse)” value at MAGL was “D (% inhibition is greater than or equal to 0% and less than 25%)”.

With `O=C(O)c1ccn(C(=O)N2CCC(Oc3ccc(C(F)(F)F)cc3N3CCCC3)CC2)n1` [Example 307, 1-(4-(2-(pyrrolidin-1-yl)-4-(trifluoromethyl)phenoxy)piperidine-1-carbonyl)-1H-pyrazole-3-carboxylic acid], on MAGL, the “MAGL % inh. 5 mg/kg (mouse)” value is “D (% inhibition is greater than or equal to 0% and less than 25%)”.

For the compound `Cc1cn(C(=O)N2C[C@H]3C[C@H](OCc4cc(F)cc(Cl)c4)C[C@H]3C2)nc1C(=O)O` [Example 252, 1-(trans-5-((3-chloro-5-fluorobenzyl)oxy)octahydrocyclo-penta[c]pyrrole-2-carbonyl)-4-methyl-1H-pyrazole-3-carboxylic acid], the “MAGL % inh. 5 mg/kg (mouse)” value on MAGL is “D (% inhibition is greater than or equal to 0% and less than 25%)”.

For `O=C(O)c1nn(C(=O)N2CCC3(CCN(Cc4cc(Cl)cc(C(F)(F)F)c4)C3)CC2)cc1Cl` [Example 388, 4-chloro-1-(2-(3-chloro-5-(trifluoromethyl)benzyl)-2,8-diazaspiro[4.5]decane-8-carbonyl)-1H-pyrazole-3-carboxylic acid], the “MAGL % inh. 5 mg/kg (mouse)” value on MAGL was “D (% inhibition is greater than or equal to 0% and less than 25%)”.

For `C[C@H]1CN(Cc2ccc(C(F)(F)F)cc2N2CCCC2)CCN1C(=O)n1ccc(C(=O)O)n1` [Example 328, (S)-1-(2-methyl-4-(2-(pyrrolidin-1-yl)-4-(trifluoromethyl)benzyl)piperazine-1-carbonyl)-1H-pyrazole-3-carboxylic acid], the “MAGL % inh. 5 mg/kg (mouse)” value at MAGL is “D (% inhibition is greater than or equal to 0% and less than 25%)”.

For the compound `CN(Cc1cc(N2CCCC2)cc(C(F)(F)F)c1)C1(C)CCN(C(=O)n2ccc(C(=O)O)n2)CC1` [Example 381, 1-(4-methyl-4-(methyl(3-(pyrrolidin-1-yl)-5-(trifluoromethyl)benzyl)amino)piper-idine-1-carbonyl)-1H-pyrazole-3-carboxylic acid], the “MAGL % inh. 5 mg/kg (mouse)” value on MAGL is “D (% inhibition is greater than or equal to 0% and less than 25%)”.

With `C[C@@H]1CN(Cc2ccc(C(F)(F)F)cc2N2C3CCC2COC3)CCN1C(=O)n1ccc(C(=O)O)n1` [Example 393, 1-((2R)-4-(2-(3-oxa-8-azabicyclo[3.2.1]octan-8-yl)-4-(trifluoromethyl)benzyl)-2-methylpiperazine-1-carbonyl)-1H-pyrazole-3-carboxylic acid], the “MAGL % inh. 5 mg/kg (mouse)” value on MAGL was “D (% inhibition is greater than or equal to 0% and less than 25%)”.
